From patent publication US7420001B2 (Wyeth, priority 2003, dated 2008) come the findings set out here.

The structures appear in SMILES notation. Read-outs that look alike come from different tables or passages of the source. Where only a bound is given, the exact number is not on record here.

The IC50 is the point on the concentration scale where inhibition reaches its midpoint.

For assay [1], the target named is T1, MMP-7 (Homo sapiens, UniProt P09237).
T1 construct: Active, recombinant human MMP-7 was purchased from Calbiochem (catalog #444270; expressed in E. coli, 19 kDa); purchased Calbiochem 444270; host or cells: E. coli
T1 sequence (P09237 95-267): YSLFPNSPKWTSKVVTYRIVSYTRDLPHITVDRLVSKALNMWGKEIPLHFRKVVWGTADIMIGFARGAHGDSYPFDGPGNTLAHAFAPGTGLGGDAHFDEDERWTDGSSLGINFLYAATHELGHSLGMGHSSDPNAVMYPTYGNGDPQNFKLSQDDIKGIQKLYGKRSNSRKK
Nature of the assay: MMP-7 activity assay. The format is biochemical. As to conditions: recombinant human MMP-7.
Method: (§1) A continuous assay was used in which the substrate is a synthetic peptide containing a fluorescent group (7-methoxycoumarin; Mca) that is quenched by energy transfer to a 2,4-dinitrophenyl group. […] The concentration of the substrate stock was spectrophotometrically determined using the extinction coefficient at 410 nm of 7500 M^−1cm^−1. The assay buffer (pH 7.4) consisted of 50 mM Hepes, 100 mM NaCl, 5 mM CaCl2, and 0.005% Brij-35. Each well of black polystyrene 96-well plates contained a reaction consisting of assay buffer, purified MMP (final concentration of 1.0 nM, prepared by dilution with assay buffer), and varied concentrations of inhibitor (prepared by serial dilution in DMSO in 96-well polypropylene plates). The plates were then incubated at room temperature for 30 minutes. […] The final DMSO concentration in the assay was 10% and the final, total assay volume was 200 μl. […] Plots of the inhibitor concentration vs. the initial cleavage rate were fit to the following equation in order to determine IC50 values: y=Vmax*(1−(x^n/(K^n+x^n))), whereby x=inhibitor concentration, y=initial rate, Vmax=initial rate in the absence of inhibitor, n=slope factor, and K=IC50 for the inhibition curve.

The target in assay [2] is T2, MMP-9 (Homo sapiens, UniProt P14780).
T2 construct: Active, recombinant human MMP-9 (83 kDa) was purchased from Calbiochem (catalog #PF024); purchased Calbiochem PF024
T2 sequence (P14780 107-707 limits assumed): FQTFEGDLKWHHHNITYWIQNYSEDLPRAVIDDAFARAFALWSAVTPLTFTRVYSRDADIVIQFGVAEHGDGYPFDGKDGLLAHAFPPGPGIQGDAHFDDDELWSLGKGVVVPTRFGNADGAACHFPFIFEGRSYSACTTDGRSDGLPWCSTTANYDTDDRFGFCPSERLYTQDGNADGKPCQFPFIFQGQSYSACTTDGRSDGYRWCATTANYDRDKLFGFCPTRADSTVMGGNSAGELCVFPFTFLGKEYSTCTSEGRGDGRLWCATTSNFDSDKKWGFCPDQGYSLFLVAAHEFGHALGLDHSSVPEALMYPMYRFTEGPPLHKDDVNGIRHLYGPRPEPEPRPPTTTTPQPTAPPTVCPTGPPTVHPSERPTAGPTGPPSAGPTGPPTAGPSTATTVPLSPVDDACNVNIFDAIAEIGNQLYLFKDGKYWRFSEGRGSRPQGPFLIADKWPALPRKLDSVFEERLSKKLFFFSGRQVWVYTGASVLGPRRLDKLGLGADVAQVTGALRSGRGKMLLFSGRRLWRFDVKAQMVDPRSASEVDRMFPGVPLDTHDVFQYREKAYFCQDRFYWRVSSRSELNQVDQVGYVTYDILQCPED
Put plainly: MMP-9 activity assay. The format is biochemical. To be noted: recombinant human MMP-9.
Method: as §1
Active, recombinant human MMP-9 (83 kDa) was purchased from Calbiochem (catalog #PF024).

Assay [3] concerns the target T3, MMP-2 (Homo sapiens, UniProt P08253).
T3 construct: purchased Oncogene Research Products (Calbiochem) PF023
T3 sequence (P08253 110-660): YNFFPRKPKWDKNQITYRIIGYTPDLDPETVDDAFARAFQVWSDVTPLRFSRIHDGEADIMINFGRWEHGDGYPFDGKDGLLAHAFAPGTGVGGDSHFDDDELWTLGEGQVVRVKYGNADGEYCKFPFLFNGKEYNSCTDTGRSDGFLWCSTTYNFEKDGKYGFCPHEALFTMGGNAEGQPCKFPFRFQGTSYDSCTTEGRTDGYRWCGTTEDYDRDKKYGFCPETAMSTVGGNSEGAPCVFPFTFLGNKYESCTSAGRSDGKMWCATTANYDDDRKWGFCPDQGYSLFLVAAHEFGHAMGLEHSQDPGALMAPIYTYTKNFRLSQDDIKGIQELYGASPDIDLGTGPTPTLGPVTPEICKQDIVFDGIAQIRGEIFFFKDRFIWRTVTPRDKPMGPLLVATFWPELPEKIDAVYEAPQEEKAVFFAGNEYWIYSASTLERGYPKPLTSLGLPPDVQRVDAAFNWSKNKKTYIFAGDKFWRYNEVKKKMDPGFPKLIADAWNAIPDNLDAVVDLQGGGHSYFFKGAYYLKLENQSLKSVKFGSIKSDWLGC
Put plainly: In-vitro fluorescence assay of MMP-2 activity. To be noted: recombinant human MMP-2; read-out: MMP-2 IC50. In kind it is biochemical.

For assay [4], the target named is T4, MMP-13 (Homo sapiens, UniProt P45452).
T4 construct: made in house
Nature of the assay: In-vitro fluorescence assay of MMP-13 activity. To be noted: recombinant human catalytic domain of MMP-13; read-out: MMP-13 IC50. The format is biochemical.

Assay [5] has as its target T5, MMP-1 (Homo sapiens, UniProt P03956).
T5 sequence (P03956 100-269 limits assumed): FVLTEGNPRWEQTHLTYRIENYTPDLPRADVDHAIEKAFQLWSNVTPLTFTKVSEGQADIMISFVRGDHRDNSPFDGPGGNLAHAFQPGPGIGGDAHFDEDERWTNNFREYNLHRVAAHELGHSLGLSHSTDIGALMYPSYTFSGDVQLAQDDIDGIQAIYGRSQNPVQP

Assay [6] concerns the target T6, Aggrecanase-1 (Homo sapiens, UniProt O75173).
T6 sequence (O75173 213-837): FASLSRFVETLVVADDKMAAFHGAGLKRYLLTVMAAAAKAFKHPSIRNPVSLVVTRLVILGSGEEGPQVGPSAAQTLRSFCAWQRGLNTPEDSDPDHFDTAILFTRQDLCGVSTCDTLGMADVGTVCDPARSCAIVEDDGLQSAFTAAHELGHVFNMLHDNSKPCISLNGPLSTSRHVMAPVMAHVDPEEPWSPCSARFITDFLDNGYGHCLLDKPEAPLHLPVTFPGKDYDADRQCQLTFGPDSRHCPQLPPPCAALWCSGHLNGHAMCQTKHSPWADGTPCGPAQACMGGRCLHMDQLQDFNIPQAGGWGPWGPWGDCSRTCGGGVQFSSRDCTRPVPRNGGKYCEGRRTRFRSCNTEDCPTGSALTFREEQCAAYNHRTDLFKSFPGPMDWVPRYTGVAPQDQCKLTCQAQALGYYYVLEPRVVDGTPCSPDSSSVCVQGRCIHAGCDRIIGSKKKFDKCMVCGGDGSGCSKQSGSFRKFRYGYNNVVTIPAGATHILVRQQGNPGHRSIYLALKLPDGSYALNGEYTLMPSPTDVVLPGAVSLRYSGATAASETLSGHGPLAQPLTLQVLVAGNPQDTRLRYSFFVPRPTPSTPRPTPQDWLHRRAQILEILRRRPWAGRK
Put plainly: Aggrecanase-1 FRET assay. In kind it is biochemical. As to conditions: rAgg1, WAAG-3R substrate; read-out: AGG-1 IC50. Here is the method:
h. Aggrecanase-1 FRET Assay:
The following protocol was used: • Fluorimeter was started and temperature set to 30° C., about 30 min before setting up the assay. The following reagents are used: • Buffer: 50 mM HEPES, pH 7.5, 100 mM NaCl, 5 mM CaCl2, 0.1% CHAPS, 5% glycerol. • rAgg1: 5 μg/ml (final concentration in the assay): • Substrate: WAAG-3R (MWT=1645.8, Anaspec, stored at 4° C.). Make a stock at 2 mg/ml in 100% DMSO. Measure the absorbance at 354 nm (ε=18172 M^−1 cm^−1) to determine the exact concentration. Dilute to 62.5 μM in buffer. Store unused 100% DMSO stock at −80° C. Final concentration of substrate in the assay is 25 μM. […] Make up inhibitors at 10× starting concentration in 100% DMSO. Perform serial dilutions (in duplicate) across the nunc plate in 100% DMSO; • Dilution plates: Nunc, polypropylene low binding (Nalgene) • Assay plate: Fluoronunc (Nalgene) • Fluorimeter: GeminiXS (Molecular Devices).; • The assay is performed as follows: The plates are set up so that the final column (12) is used for controls. Total reaction volume is 100 μl. Each compound is assayed in duplicate, so 4 compounds are screened per plate. • 1) Add buffer to the entire 96-well plate (30 ρl/well). • 2) Dilute rAgg1 to 25 μg/ml buffer just prior to addition on the plate. Add 20 μl/well to all wells. Mix 6 times. • 3) Add 10 μl/well of 10× inhibitors from the working plate, except column 12. Mix 6 times. […] Mix 6 times.
The reaction is monitored for 30-40 min at 30° C. λex: 340 nm and λ em: 420 nm). The fluorescence is linear during this time and the slope of the line (Vmax/sec) represents the initial reaction rate, ν. The maximal rate of cleavage of substrate is determined in the absence of inhibitor. The percent inhibition of activity in the presence of inhibitor is calculated as follows:
[formula] The IC50 was obtained by fitting the initial rate, ν, or % inhibition at each concentration of inhibitor to the following equation in Excel. y=(a−d)/(1+C/IC50)^n)+d This model describes a sigmoidal curve with an adjustable baseline, […]. y is the % inhibition or initial rate of reaction, C is the concentration of inhibitor under test. a is the limiting response as C approaches zero. […] The sign of n is positive when the response increases with increasing dose and is negative when the response decreases with increasing dose (inhibition).

Assay [7] has as its target T7, MMP-14 (Homo sapiens, UniProt P50281).
T7 construct: 20 kDa; purchased Chemicon International, Inc. CC 1041
Put plainly: In-vitro fluorescence assay of MMP-14 activity. The format is biochemical.

Assay [8] addresses T8, MMP-12 (Homo sapiens, UniProt P39900).
T8 construct: made in house
Nature of the assay: In vitro fluorescence assay of MMP-12 activity. In kind it is biochemical. As to conditions: recombinant human MMP-12.

Setting [9] is: recombinant human catalytic domain of MMP-14.

T8 sequence (P39900 106-280 limits assumed): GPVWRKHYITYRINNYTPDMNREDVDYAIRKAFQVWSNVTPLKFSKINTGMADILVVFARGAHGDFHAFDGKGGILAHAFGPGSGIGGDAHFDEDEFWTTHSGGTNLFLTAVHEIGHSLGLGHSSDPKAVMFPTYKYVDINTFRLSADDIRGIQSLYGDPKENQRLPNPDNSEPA

With `CCC(C)Oc1cccc2oc(C(=O)Nc3ccc(-c4ccc(S(=O)(=O)N[C@H](C(=O)O)C(C)C)cc4)cc3)c(C)c12` (stereo partly drawn) [Example 53, L-2-{4′-[(4-sec-Butoxy-3-methyl-benzofuran-2-carbonyl)-amino]-biphenyl-4-sulfonylamino}-3-methyl-butyric acid], the half-inhibitory concentration (IC50) in assay [1] is 2600 nM; in assay [2] it was over 4000 nM; in assay [3] it was 10000 nM; in assay [4] it was 17 nM.
`COCCCc1cccc2oc(C(=O)Nc3ccc(-c4ccc(S(=O)(=O)N[C@H](C(=O)O)C(C)C)cc4)cc3)c(C)c12` [Example 30, L-2-(4′-{[4-(3-Methoxy-propyl)-3-methyl-benzofuran-2-carbonyl]-amino}-biphenyl-4-sulfonylamino)-3-methyl-butyric acid]: the IC50 in assay [1] is 6000 nM; in assay [5] it was over 18000 nM; in assay [6], 14000 nM; in assay [2] it was 1500 nM; in assay [3] it was 4000 nM; in assay [7] (setting [9]), 26200 nM. Besides, the values for the IC50 in assay [8] and in assay [4] were 85 nM and 11 nM, respectively.
With `Cc1cc(-c2ccc(S(=O)(=O)N[C@@H](C(=O)O)C(C)C)cc2)cc(C)c1OC(=O)c1cc2ccccc2o1` [Example 133, D-Benzofuran-2-carboxylic acid 4′-(1-carboxy-2-methyl-propylsulfamoyl)-3,5-dimethyl-biphenyl-4-yl ester], the IC50 in assay [5] is 100000 nM; in assay [6] it was 800 nM; in assay [3], 64 nM; in assay [7] (setting [9]) it was 12000 nM; in assay [4], 5.2 nM.
As to `CC(C)[C@@H](NS(=O)(=O)c1ccc(-c2ccc(OCc3nc4ccccc4s3)cc2)cc1)C(=O)O` [Example 137, D-2-[4′-(Benzothiazol-2-ylmethoxy)-biphenyl-4-sulfonylamino]-3-methyl-butyric acid], the half-inhibitory concentration (IC50) came out at 2500 nM in assay [6], 23.9 nM in assay [3] and 4.6 nM in assay [4]. Further, in assay [7] (read-out: MMP-14 % inhibition at a concentration, at 1.6 uM), the inhibition at […] amounted to 49%.
Take `CC(C)[C@H](NS(=O)(=O)c1ccc(-c2ccc(NC(=O)c3cc4ccccc4o3)cc2)cc1)C(=O)O` [Example 2, L-2-{4′-[(Benzofuran-2-carbonyl)-amino]-biphenyl-4-sulfonylamino}-3-methyl-butyric acid]: the half-inhibitory concentration (IC50) in assay [5] was over 3500 nM; in assay [2] it was 1100 nM; in assay [3], 6.5 nM; in assay [7], 2200 nM.
Take `Cc1c(C(=O)Oc2ccc(-c3ccc(S(=O)(=O)N[C@@H](C(=O)O)C(C)C)cc3)cc2)oc2ccccc12` [Example 134, D-3-Methyl-benzofuran-2-carboxylic acid 4′-(1-carboxy-2-methyl-propylsulfamoyl)-biphenyl-4-yl ester]: the IC50 amounted to 113 nM in assay [6], 17 nM in assay [3], 6250 nM in assay [7] (setting [9]) and 1.2 nM in assay [4].
`CC(C)[C@@H](NS(=O)(=O)c1ccc(-c2ccc(C[S+]([O-])c3cc4ccccc4o3)cc2)cc1)C(=O)O` (stereo partly drawn) [Example 165, D-2-[4′-(Benzofuran-2-sulfinylmethyl)-biphenyl-4-sulfonylamino]-3-methyl-butyric acid]: the IC50 in assay [6] came out at 20000 nM; in assay [3] it was 5.6 nM; in assay [7] (setting [9]) it was 2120 nM; in assay [8] it was 4.6 nM; in assay [4], 1.2 nM.
In the case of `Cc1cc(-c2ccc(S(=O)(=O)N[C@@H](C(=O)O)C(C)C)cc2)cc(C)c1OC(=O)c1oc2ccccc2c1C` [Example 132, D-3-Methyl-benzofuran-2-carboxylic acid 4′-(1-carboxy-2-methyl-propylsulfamoyl)-3,5-dimethyl-biphenyl-4-yl ester], the IC50 in assay [6] came out at 2200 nM; in assay [3] it was 346 nM; in assay [7] (setting [9]) it was 100000 nM; in assay [4], 14 nM.
Regarding `CC(C)[C@@H](NS(=O)(=O)c1ccc(-c2ccc(NC(=O)c3ccco3)cc2)cc1)C(=O)O` [Example 172, (R)-2-{4′-[(Furan-2-carbonyl)-amino]-biphenyl-4-sulfonylamino}-3-methyl-butyric acid], the half-inhibitory concentration (IC50) in assay [5] is 18500 nM; in assay [6], 43000 nM; in assay [3] it was 6.9 nM; in assay [7] (setting [9]), 8920 nM; in assay [4], 29 nM.
`CC(C)[C@@H](NS(=O)(=O)c1ccc(-c2ccc(CS(=O)(=O)c3cc4ccccc4o3)cc2)cc1)C(=O)O` [Example 164, D-2-[4′-(Benzofuran-2-sulfonylmethyl)-biphenyl-4-sulfonylamino]-3-methyl-butyric acid]: the IC50 in assay [5] worked out at 500000 nM; in assay [6] it was 12700 nM; in assay [3], 5.6 nM; in assay [7] (setting [9]), 1430 nM; in assay [4] it was 1.1 nM.
